Test results as given in patent publication US20250282768A1 (Janssen Pharmaceutica NV, priority 2022, published 2025).

What follows are compounds tested on p-IKKa levels in L363 (NIK translocated multiple myeloma) cells (assay: Assay 2: Effect of compounds on p-IKKa levels in L363 (NIK translocated multiple myeloma) cells). Details: Homo sapiens, L-363, 6 h, read-out: Assay 2 IC50 (nM), p-IKKa (Ser 176/180) in BAFF stimulated L363 cells with MG132, 6 h; average if tested more than once.
Type: cell-based
In short: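 Read-out is p-IKKa Ser176/180 by AlphaLISA SureFire in lysates. Cells were BAFF-primed (250 ng/ml) overnight or left unstimulated, then exposed 6 h at 37 °C to compound with MG132 (10 μM), 0.3% DMSO. IC50 from sigmoidal curve fit, normalized between stimulated and unstimulated controls.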
With `Cc1nn(-c2nccc(-c3cccc(-c4cc([C@]5(O)CCN(C)C5=O)on4)n3)n2)cc1N` [Example 37, (R)-3-(3-(6-(2-(4-Amino-3-methyl-1H-pyrazol-1-yl)pyrimidin-4-yl)pyridin-2-yl)isoxazol-5-yl)-3-hydroxy-1-methylpyrrolidin-2-one] the IC50 was > 500 nM. For `CN1CC[C@@](O)(c2cc(-c3cccc(-c4ccnc(Nc5cnn6cccnc56)n4)n3)no2)C1=O` [Example 38, (R)-3-Hydroxy-1-methyl-3-(3-(6-(2-(pyrazolo[1,5-a]pyrimidin-3-ylamino)pyrimidin-4-yl)pyridin-2-yl)isoxazol-5-yl)pyrrolidin-2-one], the IC50 was < 50 nM. In the case of `CN1CC[C@@](O)(c2cc(-c3cccc(-c4ccnc(-n5cc(N)cn5)n4)n3)no2)C1=O` [Example 39, (R)-3-(3-(6-(2-(4-Amino-1H-pyrazol-1-yl)pyrimidin-4-yl)pyridin-2-yl)isoxazol-5-yl)-3-hydroxy-1-methylpyrrolidin-2-one], the IC50 is reported as > 500 nM. `CN1CC[C@@](O)(c2cc(-c3cccc(-c4ccnc(Nc5cn[nH]c5)n4)n3)no2)C1=O` [Example 40, (R)-3-(3-(6-(2-((1H-Pyrazol-4-yl)amino)pyrimidin-4-yl)pyridin-2-yl)isoxazol-5-yl)-3-hydroxy-1-methylpyrrolidin-2-one] was tested, and the IC50 was < 50 nM. In the case of `Cc1nocc1Nc1nccc(-c2cccc(-c3cc([C@]4(O)CCN(C)C4=O)on3)n2)n1` [Example 41, (R)-3-Hydroxy-1-methyl-3-(3-(6-(2-((3-methylisoxazol-4-yl)amino)pyrimidin-4-yl)pyridin-2-yl)isoxazol-5-yl)pyrrolidin-2-one], the IC50 is reported as < 50 nM. `CN1CC[C@@](O)(c2cc(-c3cccc(-c4ccnc(Nc5cnn(CC(F)(F)F)c5)n4)n3)no2)C1=O` [Example 42, (R)-3-Hydroxy-1-methyl-3-(3-(6-(2-((1-(2,2,2-trifluoroethyl)-1H-pyrazol-4-yl)amino)pyrimidin-4-yl)pyridin-2-yl)isoxazol-5-yl)pyrrolidin-2-one] was tested, and the IC50 was < 50 nM. For `CN1CC[C@@](O)(c2cc(-c3cccc(-c4ccnc(NC5(c6cnn(C)c6)CC5)n4)n3)no2)C1=O` [Example 45, (R)-3-Hydroxy-1-methyl-3-(3-(6-(2-((1-(1-methyl-1H-pyrazol-4-yl)cyclopropyl)amino)pyrimidin-4-yl)pyridin-2-yl)isoxazol-5-yl)pyrrolidin-2-one], the IC50 was > 500 nM. With `CCn1cc(Nc2nccc(-c3cccc(-c4cc([C@]5(O)CCN(C)C5=O)on4)n3)n2)cn1` [Example 46, (R)-3-(3-(6-(2-((1-Ethyl-1H-pyrazol-4-yl)amino)pyrimidin-4-yl)pyridin-2-yl)isoxazol-5-yl)-3-hydroxy-1-methylpyrrolidin-2-one] the IC50 was < 50 nM. With `CN1CC[C@@](O)(c2cc(-c3cccc(-c4ccnc(Nc5ccn(C)n5)n4)n3)no2)C1=O` [Example 47, (R)-3-Hydroxy-1-methyl-3-(3-(6-(2-((1-methyl-1H-pyrazol-3-yl)amino)pyrimidin-4-yl)pyridin-2-yl)isoxazol-5-yl)pyrrolidin-2-one] the IC50 was < 50 nM. For `COc1nn(CCO)cc1Nc1nccc(-c2cccc(-c3cc([C@]4(O)CCN(C)C4=O)on3)n2)n1` [Example 48, (R)-3-Hydroxy-3-(3-(6-(2-((1-(2-hydroxyethyl)-3-methoxy-1H-pyrazol-4-yl)amino)pyrimidin-4-yl)pyridin-2-yl)isoxazol-5-yl)-1-methylpyrrolidin-2-one], the IC50 was < 50 nM. For `COc1nn(CC(C)(C)O)cc1Nc1nccc(-c2cccc(-c3cc([C@]4(O)CCN(C)C4=O)on3)n2)n1` [Example 49, (R)-3-Hydroxy-3-(3-(6-(2-((1-(2-hydroxy-2-methylpropyl)-3-methoxy-1H-pyrazol-4-yl)amino)pyrimidin-4-yl)pyridin-2-yl)isoxazol-5-yl)-1-methylpyrrolidin-2-one], the IC50 was < 50 nM. In the case of `Cc1cn(C2CC(O)C2)nc1Nc1nccc(-c2cccc(-c3cc([C@]4(O)CCN(C)C4=O)on3)n2)n1` (stereo partly drawn) [Example 50, (R)-3-Hydroxy-3-(3-(6-(2-((1-(3-hydroxycyclobutyl)-4-methyl-1H-pyrazol-3-yl)amino)pyrimidin-4-yl)pyridin-2-yl)isoxazol-5-yl)-1-methylpyrrolidin-2-one], the IC50 is reported as < 50 nM. In the case of `CN1CC[C@@](O)(c2cc(-c3cccc(-c4ccnc(Nc5cnn(C)c5)n4)n3)no2)C1=O` [Example 52, (R)-3-Hydroxy-1-methyl-3-(3-(6-(2-((1-methyl-1H-pyrazol-4-yl)amino)pyrimidin-4-yl)pyridin-2-yl)isoxazol-5-yl)pyrrolidin-2-one], the IC50 is reported as < 50 nM. `CN1CC[C@@](O)(c2cc(-c3cccc(-c4ccnc(Nc5cnn6ccccc56)n4)n3)no2)C1=O` [Example 53, (R)-3-Hydroxy-1-methyl-3-(3-(6-(2-(pyrazolo[1,5-a]pyridin-3-ylamino)pyrimidin-4-yl)pyridin-2-yl)isoxazol-5-yl)pyrrolidin-2-one] was tested, and the IC50 was < 50 nM. For `CN1CC[C@@](O)(c2cc(-c3cccc(-c4ccnc(Nc5cn(C)nc5OCC(F)F)n4)n3)no2)C1=O` [Example 54, (R)-3-(3-(6-(2-((3-(2,2-Difluoroethoxy)-1-methyl-1H-pyrazol-4-yl)amino)pyrimidin-4-yl)pyridin-2-yl)isoxazol-5-yl)-3-hydroxy-1-methylpyrrolidin-2-one], the IC50 was < 50 nM. For `CCOc1nn(C)cc1Nc1nccc(-c2cccc(-c3cc([C@]4(O)CCN(C)C4=O)on3)n2)n1` [Example 55, (R)-3-(3-(6-(2-((3-Ethoxy-1-methyl-1H-pyrazol-4-yl)amino)pyrimidin-4-yl)pyridin-2-yl)isoxazol-5-yl)-3-hydroxy-1-methylpyrrolidin-2-one], the IC50 was < 50 nM. `CN1CC[C@@](O)(c2cc(-c3cccc(-c4ccnc(Nc5cnn(CC(F)F)c5)n4)n3)no2)C1=O` [Example 56, (R)-3-(3-(6-(2-((1-(2,2-Difluoroethyl)-1H-pyrazol-4-yl)amino)pyrimidin-4-yl)pyridin-2-yl)isoxazol-5-yl)-3-hydroxy-1-methylpyrrolidin-2-one] was tested, and the IC50 was < 50 nM. `Cc1nn(CC(F)F)cc1Nc1nccc(-c2cccc(-c3cc([C@]4(O)CCN(C)C4=O)on3)n2)n1` [Example 57, (R)-3-(3-(6-(2-((1-(2,2-Difluoroethyl)-3-methyl-1H-pyrazol-4-yl)amino)pyrimidin-4-yl)pyridin-2-yl)isoxazol-5-yl)-3-hydroxy-1-methylpyrrolidin-2-one] was tested, and the IC50 was < 50 nM. With `COc1nn(CC(F)F)cc1Nc1nccc(-c2cccc(-c3cc([C@]4(O)CCN(C)C4=O)on3)n2)n1` [Example 58, (R)-3-(3-(6-(2-((1-(2,2-Difluoroethyl)-3-methoxy-1H-pyrazol-4-yl)amino)pyrimidin-4-yl)pyridin-2-yl)isoxazol-5-yl)-3-hydroxy-1-methylpyrrolidin-2-one] the IC50 was < 50 nM. With `CN1CC[C@@](O)(c2cc(-c3cccc(-c4ccnc(Nc5cn(C)nc5OCC(F)(F)F)n4)n3)no2)C1=O` [Example 59, (R)-3-Hydroxy-1-methyl-3-(3-(6-(2-((1-methyl-3-(2,2,2-trifluoroethoxy)-1H-pyrazol-4-yl)amino)pyrimidin-4-yl)pyridin-2-yl)isoxazol-5-yl)pyrrolidin-2-one] the IC50 was < 50 nM. For `CN1CC[C@@](O)(c2cc(-c3cccc(-c4ccnc(Nc5ccn(CCF)n5)n4)n3)no2)C1=O` [Example 60, (R)-3-(3-(6-(2-((1-(2-Fluoroethyl)-1H-pyrazol-3-yl)amino)pyrimidin-4-yl)pyridin-2-yl)isoxazol-5-yl)-3-hydroxy-1-methylpyrrolidin-2-one], the IC50 was < 50 nM. In the case of `CN1CC[C@@](O)(c2cc(-c3cccc(-c4ccnc(Nc5cnn(CCF)c5)n4)n3)no2)C1=O` [Example 61, (R)-3-(3-(6-(2-((1-(2-Fluoroethyl)-1H-pyrazol-4-yl)amino)pyrimidin-4-yl)pyridin-2-yl)isoxazol-5-yl)-3-hydroxy-1-methylpyrrolidin-2-one], the IC50 is reported as < 50 nM. In the case of `CN1CC[C@@](O)(c2cc(-c3cccc(-c4ccnc(Nc5cnn(CCN6CCOCC6)c5)n4)n3)no2)C1=O` [Example 62, (R)-3-Hydroxy-1-methyl-3-(3-(6-(2-((1-(2-morpholinoethyl)-1H-pyrazol-4-yl)amino)pyrimidin-4-yl)pyridin-2-yl)isoxazol-5-yl)pyrrolidin-2-one], the IC50 is reported as < 50 nM. For `Cc1oncc1Nc1nccc(-c2cccc(-c3cc([C@]4(O)CCN(C)C4=O)on3)n2)n1` [Example 63, (R)-3-Hydroxy-1-methyl-3-(3-(6-(2-((5-methylisoxazol-4-yl)amino)pyrimidin-4-yl)pyridin-2-yl)isoxazol-5-yl)pyrrolidin-2-one], the IC50 was < 50 nM. `CN1CC[C@@](O)(c2cc(-c3cccc(-c4ccnc(Nc5cnn(CC(C)(C)O)c5)n4)n3)no2)C1=O` [Example 64, (R)-3-Hydroxy-3-(3-(6-(2-((1-(2-hydroxy-2-methylpropyl)-1H-pyrazol-4-yl)amino)pyrimidin-4-yl)pyridin-2-yl)isoxazol-5-yl)-1-methylpyrrolidin-2-one] was tested, and the IC50 was < 50 nM. Work on `CN1CC[C@@](O)(c2cc(-c3cccc(-c4ccnc(Nc5cn(C)nn5)n4)n3)no2)C1=O` [Example 65, (R)-3-Hydroxy-1-methyl-3-(3-(6-(2-((1-methyl-1H-1,2,3-triazol-4-yl)amino)pyrimidin-4-yl)pyridin-2-yl)isoxazol-5-yl)pyrrolidin-2-one] yielded an IC50 of 50 to 500 nM. `CN1CC[C@@](O)(c2cc(-c3cccc(-c4ccnc(NC5COC5)n4)n3)no2)C1=O` [Example 66, (R)-3-Hydroxy-1-methyl-3-(3-(6-(2-(oxetan-3-ylamino)pyrimidin-4-yl)pyridin-2-yl)isoxazol-5-yl)pyrrolidin-2-one] showed an IC50 of 50 to 500 nM. For `CN1CC[C@@](O)(c2cc(-c3cccc(-c4ccnc(NCCC(F)(F)F)n4)c3)no2)C1=O` [Example 71, (R)-3-Hydroxy-1-methyl-3-(3-(3-(2-((3,3,3-trifluoropropyl)amino)pyrimidin-4-yl)phenyl)isoxazol-5-yl)pyrrolidin-2-one], the IC50 was > 500 nM.
